Test results taken from ChEMBL document CHEMBL1201862, “PubChem BioAssay data set” (2004).
Active and inactive are the calls of the source.

Experiments:
[1] = molecular target: T1, Bcl-2-related protein A1 (Mus musculus, UniProt Q07440); test: displacement of Bid BH3 peptide from Bfl-1 – biochemical, fluorescence polarization, FITC-Bid, mouse, primary screen (AID 432)
T1 sequence (Q07440 whole entry): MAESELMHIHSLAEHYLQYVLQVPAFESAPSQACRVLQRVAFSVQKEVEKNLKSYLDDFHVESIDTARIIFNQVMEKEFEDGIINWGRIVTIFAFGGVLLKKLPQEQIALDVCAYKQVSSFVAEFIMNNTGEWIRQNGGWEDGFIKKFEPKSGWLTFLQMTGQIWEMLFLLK

[2] = molecular target: T1, Bcl-2-related protein A1; test: small-molecule antagonists of Bfl-1/BH3 interaction – biochemical, TR-FRET, mouse Bfl-1, confirmation (AID 621);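 further: TR-FRET binding of GST-Bfl-1 to FITC-labelled Bid peptide via terbium antibody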
[3] = cells; format: functional
[4] = molecular target: Heat shock protein HSP 90-alpha (Homo sapiens, UniProt P07900); test: Luminescence-based dose response biochemical high throughput screening assay for inhibitors of the Heat Shock Protein 90 (HSP90). [Related pubchem assays: 1831 (Summary AID.), 1846 (Confirmation screen.), 1789 (Primary screen.)]
[5] = toxicity toward HepG2 liver cells – cell-based, plate reader, cherry-pick, antagonist series, cytotoxicity control, dose response (AID 743416); format: functional
[6] = viability inhibitors of stage V gametocytes – luminescence, dose response (AID 1117278); format: functional, cell-based;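 further: gametocytes exposed to compound for 24 hours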
[7] = reduction of Shn3 3'UTR-driven luciferase in osteoblasts – cell-based, Clone20 osteoblasts, firefly luciferase, cherry-picked, dose response (AID 624132); format: functional;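 further: firefly luciferase luminescence from reporter carrying the Shn3 3'UTR in osteoblasts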
[8] = test system: BJ; test: growth inhibition of engineered Ras-driven BJ cells – cell-based, alamar blue fluorescence, cherrypicked samples, dose response (AID 2631); format: functional; settings: Homo sapiens;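 further: confirmatory dose-response assay in RAS-dependent BJ fibroblasts engineered with TERT, LT and ST, with cytotoxicity read by fluorescence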
[9] = blockers of bursicon-stimulated LGR2 cAMP reporter – cell-based, HEK293, CRE-luciferase reporter, cherry pick, set 2, dose response (AID 743343); format: functional;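 further: transfected cells were stimulated with diluted bursicon conditioned medium after compound addition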
[10] = A549 cell cytotoxicity, dose response, cytotoxicity control, plate reader, cherry-pick, antagonist series (AID 743412); format: functional, cell-based
[11] = general cell-killing toxicity readout – plate reader, dry powder samples, cytotoxicity control for PAX8 inhibitor project, dose response (AID 743021); format: functional, cell-based
[12] = molecular target: Luciferin 4-monooxygenase (Photinus pyralis, UniProt P08659); test: inhibition of purified Photinus pyralis luciferase – biochemical, luminescence, dose response (AID 1891)
[13] = non-specific 3'UTR reporter inhibition in Clone20-Shn3RL – cell-based, Renilla luciferase, cherry-picked, counter-screen for Shn3 inhibitor project, dose response (AID 624133); format: functional
[14] = test system: BJ; test: BJ-TERT-LT-ST fibroblast viability loss – cell-based, RAS-independent, luminescence, dose response (AID 1935); format: functional; settings: Homo sapiens;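 further: BJ fibroblasts immortalized with TERT plus LT and ST oncogenes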
[15] = DRD fibroblast viability loss – cell-based, non-viral oncogenic, luminescence, dose response (AID 1934); format: functional; settings: Homo sapiens
[16] = test system: BJ; test: cells; format: functional, cell-based; settings: Homo sapiens
[17] = Luminescence Cell-Based Dose Confirmation HTS to Identify Inhibitors of Platelet Dense Granule Release. [Related pubchem assays: 1663 (Primary HTS), 1678 (Summary of Project)]; format: functional
[18] = loss of viability in HepG2 cells – cell-based, CellTiter-Glo, cherry-picked, cytotoxicity control for Shn3 inhibitor project, dose response (AID 624134); format: functional
[19] = test system: BJ; test: BJ-TERT fibroblast viability loss – cell-based, RAS-independent, luminescence, dose response (AID 1933); format: functional; settings: Homo sapiens
[20] = molecular target: Paired box protein Pax-8 (Homo sapiens, UniProt Q06710); test: PAX8 transcriptional activity inhibition in RMG-I – RMG-I cells, luciferase, cherry-pick, dose response (AID 687027); format: functional, cell-based;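 further: luciferase reporter driven by Pax8 target thyroperoxidase promoter measured by SteadyGlo luminescence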
[21] = viability loss in HEK293 cells – cell-based, plate reader, cherry-picked samples, cytotoxicity control, dose response (AID 743446); format: functional
[22] = blockade of melanocortin 4 receptor signaling – cell-based, plate reader, cherry pick, counter-screen for LGR2 antagonist project, dose response (AID 743444); format: functional;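 further: transfected HEK 293 cells stimulated with alpha-MSH peptide; potency of inhibitors of the alpha-MSH evoked signal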
[23] = viability loss in human Jurkat cells – cell-based, luminescence, cytotoxicity control for P. falciparum gametocyte viability project, dose response (AID 1117277); format: functional;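 further: potency reflects loss of cellular ATP meaning fewer viable cells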
[24] = molecular target: T2, Streptokinase A (Streptococcus pyogenes serotype M1, UniProt P10520); test: viability-normalized secreted streptokinase activity reduction – plasminogen activation absorbance, OD405, dose response (AID 1914); format: functional, Streptococcus pyogenes M1 GAS;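 further: secreted streptokinase activity via plasminogen activation per viability signal from cell pellet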
T2 sequence (P10520 whole entry): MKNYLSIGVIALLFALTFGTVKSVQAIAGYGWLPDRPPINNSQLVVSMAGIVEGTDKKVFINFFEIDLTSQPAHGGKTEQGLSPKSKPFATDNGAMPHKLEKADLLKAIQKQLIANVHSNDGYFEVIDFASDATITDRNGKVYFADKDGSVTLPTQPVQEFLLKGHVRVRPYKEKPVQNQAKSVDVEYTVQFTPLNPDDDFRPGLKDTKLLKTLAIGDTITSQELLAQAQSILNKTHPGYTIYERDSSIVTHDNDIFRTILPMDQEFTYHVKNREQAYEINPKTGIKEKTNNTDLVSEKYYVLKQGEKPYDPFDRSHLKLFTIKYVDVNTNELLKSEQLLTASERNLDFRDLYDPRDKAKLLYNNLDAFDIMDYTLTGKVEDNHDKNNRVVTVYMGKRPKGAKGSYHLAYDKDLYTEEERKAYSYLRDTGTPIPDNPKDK

[25] = molecular target: Cytochrome P450 2C19 (Homo sapiens, UniProt P33261); test: Cytochrome panel assay with activity outcomes. Panel member name: p450-cyp2c19 Compounds with AC50 equal or less than 10 uM are considered active; format: functional; settings: read-out: AC50
[26] = test system: Streptococcus sp. 'group A'; test: Streptococcus pyogenes SK(-)GAS viability under kanamycin – luminescence, BacTiterGlo, confirmation, counter-screen for streptokinase expression inhibitor project, dose response (AID 1900); format: functional, organism-based
[27] = molecular target: G-protein coupled receptor 55 (Homo sapiens, UniProt Q9Y2T6); test: inhibition of LPI-stimulated GPR55 beta-arrestin translocation – imaging, U2OS, beta-arrestin-GFP, LPI agonist, primary screen (AID 2013); format: functional;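 further: antagonist potency measured as reduced agonist-driven arrestin aggregation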
[28] = molecular target: Cytochrome P450 3A4 (Homo sapiens, UniProt P08684);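 further: CYP3A4 tested as one member of a cytochrome P450 panel screen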
[29] = molecular target: T3, Cytochrome P450 1A2 (Homo sapiens, UniProt P05177);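 further: PubChem cytochrome P450 panel assay, CYP1A2 panel member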
T3 sequence (P05177 whole entry): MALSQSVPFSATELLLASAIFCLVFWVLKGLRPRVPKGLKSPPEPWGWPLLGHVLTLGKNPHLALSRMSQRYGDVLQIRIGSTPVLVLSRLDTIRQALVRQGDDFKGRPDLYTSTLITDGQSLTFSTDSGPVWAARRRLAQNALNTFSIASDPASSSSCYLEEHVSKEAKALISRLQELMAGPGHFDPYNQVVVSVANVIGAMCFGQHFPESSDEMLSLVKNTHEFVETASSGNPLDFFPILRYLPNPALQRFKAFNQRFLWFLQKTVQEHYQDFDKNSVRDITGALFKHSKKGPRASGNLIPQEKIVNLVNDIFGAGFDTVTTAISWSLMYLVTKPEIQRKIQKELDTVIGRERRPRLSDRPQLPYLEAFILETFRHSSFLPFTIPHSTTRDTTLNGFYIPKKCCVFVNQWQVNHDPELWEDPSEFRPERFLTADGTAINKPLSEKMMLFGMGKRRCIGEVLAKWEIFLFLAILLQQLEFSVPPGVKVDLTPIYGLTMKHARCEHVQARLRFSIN

[30] = test system: Streptococcus; test: GAS UMAA2166 growth inhibition – luminescence, BacTiterGlo, counter-screen for streptokinase expression inhibitor project, dose response (AID 1915); format: functional, organism-based;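 further: potency for reduction of bacterial viability or growth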
[31] = molecular target: Voltage-gated inwardly rectifying potassium channel KCNH2 (Homo sapiens, UniProt Q12809); test: concentration-dependent hERG rescue from blockers – cell-based, thallium flux, dose response (AID 2121); format: ADME
[32] = molecular target: T4, Fatty acid synthase (Homo sapiens, UniProt P49327); test: inhibition of human FAS-TE enzyme activity – biochemical, kinetic fluorescence intensity, dose response (AID 624326); format: functional;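 further: rate of fluorescence rise from hydrolysis of a fluorogenic O-methyl fluorescein ester substrate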
[33] = molecular target: T4, Fatty acid synthase; test: inhibition of human FAS-TE enzyme activity – biochemical, endpoint fluorescence intensity, uHTS hits, dose response (AID 624327); format: functional;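 further: fluorescence from hydrolysis of an O-methyl fluorescein acyl ester substrate by the enzyme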
[34] = cells; format: functional, cell-based
[35] = cells; format: functional, cell-based; remark: listed apart in the source
[36] = molecular target: E3 ubiquitin-protein ligase Mdm2 (Homo sapiens, UniProt Q00987); test: MDM2-luc reporter signal enhancers, multi-concentration potency testing, MDM2 ubiquitin-protein ligase inhibitor program, whole-cell format, luminescence detection, 384-well microplate (AID 1394); format: functional;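 further: MDM2 E3 inhibitors raise luminescence so EC50 is for signal enhancement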
Sequence of E3 ubiquitin-protein ligase Mdm2 (Q00987 whole entry): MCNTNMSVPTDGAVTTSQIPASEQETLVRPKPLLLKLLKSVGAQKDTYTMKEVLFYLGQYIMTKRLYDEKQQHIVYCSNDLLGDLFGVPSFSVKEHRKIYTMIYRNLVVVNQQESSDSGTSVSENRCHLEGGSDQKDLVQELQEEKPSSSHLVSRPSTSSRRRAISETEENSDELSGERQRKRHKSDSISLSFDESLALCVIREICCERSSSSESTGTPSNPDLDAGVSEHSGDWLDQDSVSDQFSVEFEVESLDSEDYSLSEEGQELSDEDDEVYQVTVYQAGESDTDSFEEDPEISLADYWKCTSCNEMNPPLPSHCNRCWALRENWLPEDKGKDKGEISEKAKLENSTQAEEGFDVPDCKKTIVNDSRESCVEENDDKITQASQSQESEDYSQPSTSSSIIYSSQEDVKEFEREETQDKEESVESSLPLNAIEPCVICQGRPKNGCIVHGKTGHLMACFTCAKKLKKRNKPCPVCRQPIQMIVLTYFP

T4 sequence (P49327 whole entry): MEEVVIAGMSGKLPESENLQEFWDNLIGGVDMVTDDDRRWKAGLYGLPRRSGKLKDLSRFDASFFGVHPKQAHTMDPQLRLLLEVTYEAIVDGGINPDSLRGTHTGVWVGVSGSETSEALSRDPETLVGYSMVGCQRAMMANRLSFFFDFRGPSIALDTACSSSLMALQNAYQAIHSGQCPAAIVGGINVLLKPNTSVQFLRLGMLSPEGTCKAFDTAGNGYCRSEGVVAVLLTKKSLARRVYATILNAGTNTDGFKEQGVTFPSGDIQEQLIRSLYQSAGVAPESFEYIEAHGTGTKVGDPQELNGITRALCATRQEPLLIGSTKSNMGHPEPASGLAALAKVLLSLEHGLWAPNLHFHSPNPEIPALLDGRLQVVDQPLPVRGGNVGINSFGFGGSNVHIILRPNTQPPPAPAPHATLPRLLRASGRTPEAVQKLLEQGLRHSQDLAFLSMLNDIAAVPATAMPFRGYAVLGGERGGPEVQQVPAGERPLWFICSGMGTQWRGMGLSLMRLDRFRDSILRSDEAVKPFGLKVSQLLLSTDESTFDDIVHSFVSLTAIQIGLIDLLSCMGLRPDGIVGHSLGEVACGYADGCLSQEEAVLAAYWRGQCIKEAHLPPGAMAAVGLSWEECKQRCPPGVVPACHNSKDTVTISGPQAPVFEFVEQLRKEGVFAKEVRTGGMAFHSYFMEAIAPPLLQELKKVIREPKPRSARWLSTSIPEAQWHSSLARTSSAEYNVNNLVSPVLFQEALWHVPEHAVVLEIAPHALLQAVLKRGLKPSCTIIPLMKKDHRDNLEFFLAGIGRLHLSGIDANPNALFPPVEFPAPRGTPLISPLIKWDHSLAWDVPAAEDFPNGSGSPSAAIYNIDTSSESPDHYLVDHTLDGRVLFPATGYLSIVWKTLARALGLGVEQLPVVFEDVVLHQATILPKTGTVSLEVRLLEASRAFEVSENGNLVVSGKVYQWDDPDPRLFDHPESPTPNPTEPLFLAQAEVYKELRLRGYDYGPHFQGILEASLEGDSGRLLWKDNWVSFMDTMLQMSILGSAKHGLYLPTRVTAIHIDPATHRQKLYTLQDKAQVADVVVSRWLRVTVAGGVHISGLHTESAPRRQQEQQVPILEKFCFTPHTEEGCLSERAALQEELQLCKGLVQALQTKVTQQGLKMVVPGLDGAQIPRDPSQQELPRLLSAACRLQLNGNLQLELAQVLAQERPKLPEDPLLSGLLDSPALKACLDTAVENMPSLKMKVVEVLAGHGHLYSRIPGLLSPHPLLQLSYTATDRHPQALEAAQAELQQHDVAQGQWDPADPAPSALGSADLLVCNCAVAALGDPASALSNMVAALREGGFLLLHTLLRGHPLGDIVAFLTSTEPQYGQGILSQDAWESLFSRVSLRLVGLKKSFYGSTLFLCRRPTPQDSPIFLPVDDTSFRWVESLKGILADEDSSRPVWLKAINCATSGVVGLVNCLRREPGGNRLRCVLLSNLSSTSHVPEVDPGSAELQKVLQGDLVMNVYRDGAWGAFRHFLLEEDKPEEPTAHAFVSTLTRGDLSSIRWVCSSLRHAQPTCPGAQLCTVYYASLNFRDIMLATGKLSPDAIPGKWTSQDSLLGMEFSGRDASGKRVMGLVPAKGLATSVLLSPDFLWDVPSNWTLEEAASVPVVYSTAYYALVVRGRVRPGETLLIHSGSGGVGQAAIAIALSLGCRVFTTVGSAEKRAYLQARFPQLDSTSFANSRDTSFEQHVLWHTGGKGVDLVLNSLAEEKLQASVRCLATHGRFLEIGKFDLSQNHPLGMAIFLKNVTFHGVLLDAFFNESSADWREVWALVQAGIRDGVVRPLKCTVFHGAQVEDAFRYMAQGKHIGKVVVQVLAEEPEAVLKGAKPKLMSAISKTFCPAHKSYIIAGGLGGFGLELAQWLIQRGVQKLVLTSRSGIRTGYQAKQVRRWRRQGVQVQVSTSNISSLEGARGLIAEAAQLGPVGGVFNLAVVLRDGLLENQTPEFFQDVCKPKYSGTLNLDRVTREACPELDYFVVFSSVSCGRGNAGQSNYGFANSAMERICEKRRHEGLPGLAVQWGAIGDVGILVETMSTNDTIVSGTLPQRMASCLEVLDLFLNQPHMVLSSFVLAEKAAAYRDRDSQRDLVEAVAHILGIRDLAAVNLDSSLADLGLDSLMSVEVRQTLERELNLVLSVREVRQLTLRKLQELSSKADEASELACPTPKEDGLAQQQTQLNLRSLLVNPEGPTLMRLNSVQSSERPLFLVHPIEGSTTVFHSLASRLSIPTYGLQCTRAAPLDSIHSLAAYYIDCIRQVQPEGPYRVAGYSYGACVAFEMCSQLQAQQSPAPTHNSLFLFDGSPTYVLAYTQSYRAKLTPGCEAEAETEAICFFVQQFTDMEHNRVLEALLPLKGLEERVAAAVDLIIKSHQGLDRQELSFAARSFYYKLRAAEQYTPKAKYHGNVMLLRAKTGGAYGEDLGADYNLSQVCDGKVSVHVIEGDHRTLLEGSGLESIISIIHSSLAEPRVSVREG
Sequence of Luciferin 4-monooxygenase (P08659 whole entry): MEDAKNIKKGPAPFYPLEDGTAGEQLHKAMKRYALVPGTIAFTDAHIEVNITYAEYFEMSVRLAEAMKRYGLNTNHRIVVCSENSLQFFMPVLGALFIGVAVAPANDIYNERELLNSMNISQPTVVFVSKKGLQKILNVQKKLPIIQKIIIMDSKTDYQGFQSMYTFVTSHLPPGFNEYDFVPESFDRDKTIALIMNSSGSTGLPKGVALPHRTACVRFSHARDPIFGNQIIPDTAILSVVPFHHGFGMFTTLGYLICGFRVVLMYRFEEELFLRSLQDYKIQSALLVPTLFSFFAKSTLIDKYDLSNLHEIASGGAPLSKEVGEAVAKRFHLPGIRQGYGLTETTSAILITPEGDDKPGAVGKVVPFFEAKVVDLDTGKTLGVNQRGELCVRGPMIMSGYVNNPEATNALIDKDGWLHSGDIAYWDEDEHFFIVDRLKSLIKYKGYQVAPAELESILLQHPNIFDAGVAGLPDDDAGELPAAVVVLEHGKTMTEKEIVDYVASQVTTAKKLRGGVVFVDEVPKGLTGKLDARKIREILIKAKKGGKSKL
Sequence of Voltage-gated inwardly rectifying potassium channel KCNH2 (Q12809 whole entry): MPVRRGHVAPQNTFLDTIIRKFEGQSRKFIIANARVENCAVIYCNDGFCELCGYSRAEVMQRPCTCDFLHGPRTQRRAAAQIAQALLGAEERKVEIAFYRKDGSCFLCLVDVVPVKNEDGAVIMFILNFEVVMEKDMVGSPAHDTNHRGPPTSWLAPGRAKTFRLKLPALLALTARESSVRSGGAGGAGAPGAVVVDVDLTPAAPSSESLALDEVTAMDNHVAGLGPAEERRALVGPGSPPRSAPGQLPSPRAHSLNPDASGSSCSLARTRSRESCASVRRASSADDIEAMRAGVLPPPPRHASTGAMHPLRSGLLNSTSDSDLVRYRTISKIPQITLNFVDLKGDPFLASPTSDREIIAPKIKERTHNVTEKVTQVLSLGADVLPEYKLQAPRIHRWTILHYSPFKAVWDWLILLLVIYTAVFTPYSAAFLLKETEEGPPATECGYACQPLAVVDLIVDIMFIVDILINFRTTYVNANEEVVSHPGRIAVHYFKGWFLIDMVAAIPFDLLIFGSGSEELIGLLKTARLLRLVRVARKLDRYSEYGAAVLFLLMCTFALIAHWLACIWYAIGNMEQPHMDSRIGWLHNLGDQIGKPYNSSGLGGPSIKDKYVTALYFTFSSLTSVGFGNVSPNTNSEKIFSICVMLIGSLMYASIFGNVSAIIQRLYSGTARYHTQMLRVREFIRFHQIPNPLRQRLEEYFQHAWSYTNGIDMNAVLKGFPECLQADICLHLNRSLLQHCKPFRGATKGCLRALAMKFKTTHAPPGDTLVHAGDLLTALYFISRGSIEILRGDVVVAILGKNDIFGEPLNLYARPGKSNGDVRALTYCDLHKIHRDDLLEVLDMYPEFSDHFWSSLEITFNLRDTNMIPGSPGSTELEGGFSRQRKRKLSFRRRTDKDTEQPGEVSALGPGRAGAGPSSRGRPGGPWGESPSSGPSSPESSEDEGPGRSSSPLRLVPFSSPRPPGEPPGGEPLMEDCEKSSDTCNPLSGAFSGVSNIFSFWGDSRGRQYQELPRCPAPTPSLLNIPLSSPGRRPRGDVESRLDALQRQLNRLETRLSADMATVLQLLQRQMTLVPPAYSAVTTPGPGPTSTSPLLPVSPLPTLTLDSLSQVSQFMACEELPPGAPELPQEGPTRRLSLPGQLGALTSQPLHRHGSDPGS
Sequence of G-protein coupled receptor 55 (Q9Y2T6 whole entry): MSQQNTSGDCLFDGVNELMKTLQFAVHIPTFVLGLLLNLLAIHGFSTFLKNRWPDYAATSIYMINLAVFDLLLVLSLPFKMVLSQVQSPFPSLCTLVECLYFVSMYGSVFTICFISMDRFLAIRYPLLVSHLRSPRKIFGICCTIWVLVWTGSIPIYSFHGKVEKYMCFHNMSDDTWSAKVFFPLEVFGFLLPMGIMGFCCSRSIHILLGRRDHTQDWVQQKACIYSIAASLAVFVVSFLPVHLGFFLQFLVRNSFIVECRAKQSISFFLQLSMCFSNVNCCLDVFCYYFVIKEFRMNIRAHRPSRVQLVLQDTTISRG

Cc1nn(C)c(C)c1NC(=O)CSc1nc(-c2ccccc2F)nc2c1cnn2-c1ccccc1
IC50 [1]: > 100 µM (not active) | IC50 [2]: > 100 µM (not active)

CCOC(=O)c1csc(COc2ccc(OC)cc2)n1
IC50 [3]: 47.7 µM (active) | IC50 [4]: 8.03 µM (active)

O=c1c2ccccc2cnn1-c1nc2ccccc2[nH]1
AC50 [5]: 8.61 µM (active) | IC50 [6]: 15.2 µM (inactive) | AC50 [7]: 1.33 µM (active) | EC50 [8]: > 133 µM (inactive) | AC50 [9]: 0.275 µM (active) | AC50 [10]: 2.6 µM (active) | AC50 [11]: 3.39 µM (active) | EC50 [12]: 1.16 µM (active) | AC50 [13]: 27.2 µM (active) | EC50 [14]: 4.79 µM (active) | EC50 [15]: 5.22 µM (active) | EC50 [16]: 4.94 µM (active) | EC50 [17]: 0.144 µM (active) | AC50 [18]: 12.1 µM (active) | EC50 [19]: 5.15 µM (active) | AC50 [20]: 1.65 µM (active) | AC50 [21]: 2.23 µM (active) | AC50 [22]: 0.288 µM (active) | IC50 [23]: 3.98 µM (active)

COc1ccc(/C=C2/SC(N/N=C3\CC4CCC3(C)C4(C)C)=NC2=O)cc1 (stereo unspecified)
EC50 [24]: > 150 µM (not active) | AC50 [25]: 20 µM (inconclusive) | EC50 [26]: 3.92 µM (active) | IC50 [27]: 6 µM (active) | AC50 [28]: 12.6 µM (inconclusive) | AC50 [29]: 14.1 µM (inconclusive) | EC50 [30]: > 150 µM (not active) | EC50 [31]: 0.22 µM (active)

COCCn1/c(=N/C(=O)c2ccc(S(=O)(=O)N3CCCc4ccccc43)cc2)sc2cc(S(C)(=O)=O)ccc21
IC50 [32]: 64.5 µM (inactive) | IC50 [33]: 45.9 µM (inactive) | EC50 [34]: > 350 µM (not active) | EC50 [35]: 298 µM (active) | EC50 [36]: 1.03 µM (not active)
